The values below come from patent publication US11567065B2, “Measuring frequency of pathogen-specific T cells in peripheral blood” (THOMAS JEFFERSON UNIVERSITY, priority 2015, dated 2023).

This experiment deals with 68A62 CTL. In words: CaFlux assay: Ca2+ flux in monolayer of 68A62 CTL. The experiment is classed as cell-based, human. To be noted: FIG. 4A. As to the method: 10^6 cells in 1 ml of PBS were loaded with Fluo-4 (Life Technologies) at 2-4 μM for 30 min at 37° C. in the presence of 0.02% pluoronic acid F-127 and 4 mM Probenecid. The cells were washed free of unreacted reagents and incubated at 37° C. for additional 30 min. The cells were then re-suspended in the assay buffer (Dulbecco's PBS containing 1 mM CaCl2, 2 mM MgCl2, 5 mM glucose, and 0.025% BSA) and used for Ca2+ flux analysis.
Glass bottom of 96 well MatTec plates was covered with poly-L-Lysine (Sigma, mol wt>300,000) at 0.1 mg/ml for 1 hr at room temperature. After washing with DPBS and dd water, TS2/4 non-blocking mAb specific for LFA-1 were added to the plate at concentration 10 μg/ml overnight & 4° C. The wells were washed with DPBS, and 3×10^5 Fluo-4-labeled T cells in 100 μl of the assay buffer were added to each well. The plates were centrifuged for 700 g for one minute and were incubated for 30 min at room temperature prior to the imaging. […] The quality of T cell monolayer was assessed using bright field microscopy.
To identify responding T cells we imaged T-cell monolayers before (background measurement) and after (response) addition of the stimulatory signal such as agonist peptide. […] The average intensity of images prior and after the T-cell stimulation at various time points and the numbers of individual responding cells per imaging field were determined by MetaMorph software.
A general note: A change in cytosolic calcium serves as a functional read-out for many receptors and channels.

For ILKEPVHGV (IV9), the “time to maximum of Ca2+ increase following stimulation” value is 2 to 3 min.
